Results published in patent US20230364051A1, “FORMULATIONS AND METHODS FOR IMPROVING AVIAN HEALTH” (CORNELL UNIVERSITY, priority 2022, published 2023).

System: Hepcidin
Test: Liver gene expression by RT-qPCR: hepcidin
Type: in vivo, Gallus gallus
Conditions: genistein exposure vs no injection, p < 0.05
Description: Cornish-cross fertile broiler eggs (Gallus gallus, n = 39) were obtained from a commercial hatchery (Moyer’s chicks, Quakertown, PA, USA). The eggs were incubated under optimal conditions at the Cornell University Animal Science Poultry Farm Incubator [18]. All animal protocols were approved by Cornell University Institutional Animal Care and Use committee (IACUC #2020-0077). At day 17 of embryonic incubation, eggs containing viable embryos were weighed and divided into 5 groups, with all treatment groups assigned eggs of similar weight frequency distribution. Each group was then injected with the specific solution (1 mL per egg) with a 21-gauge needle into the amniotic fluid. Treatments in powder form were separately diluted in DI H2O. […]
Total RNA was extracted from 30 mg of the proximal duodenal (n=6) or liver tissues (n=6) using Qiagen RNeasy Mini Kit (Qiagen Inc., Valencia, CA) according to the manufacturer’s protocol. […] RNA was quantified by absorbance at 260-280 nm using a NanoDrop 2000 (ThermoFisher Scientific, Waltham, MA). […]
As previously described. cDNA was generated using a 20 uL reverse transcriptase (RT) reaction in a BioRad C1000 touch thermocycler using the Improm-II Reverse Transcriptase Kit (Catalog #A1250; Promega, Madison, WI, USA). […] Genomic DNA contamination was assessed using a RT-PCR assay for the reference of genes samples. […]

O=c1c(-c2ccc(O)cc2)coc2cc(O)cc(O)c12 [Genistein, genistein]
Gene expression of hepcidin: significantly upregulated
